One experiment has as its target soluble uPAR (Homo sapiens, UniProt Q03405). It counts as binding. Also on record: sUPAR, soluble truncated form of the urokinase receptor; made in house; host or cells: baculovirus-infected Sf9 insect cells. The method, then: Streptavidin, 100 μl (0.1 mg/ml) in 50 mM Na2CO3, pH 9.6, was added to MaxiSorp wells (Nunc), incubated overnight at 4 C, and then washed with PBS/BSA. Biotinylated sUPAR (25 nM in PBS/BSA) was added to the wells and incubated for 2 hours at room temperature prior to washing. Competitive peptide inhibitors were added to the wells immediately prior to addition of the bacteriophage. The wells were incubated for one hour at room temperature, then washed and bound bacteriophage eluted with 6M urea in 0.1N HCl, pH 2.5. After 15 minutes, the urea eluate was brought to neutral pH by addition of 2M Tris base and the bacteriophage titers of input stocks and elutions measured by plaque formation assay. Results were expressed as the percent of input bacteriophage which bind to the wells. Alternatively, the amount of bacteriophage was determined in an ELISA where phage were preincubated with HRP-conjugated anti-M13 antibody for 30 minutes at room temperature before dispensing into wells prepared as above and incubated for one hour at room temperature. The final anti-M13 conjugate dilution was 1:4000. After washing, TMB substrate (100 μl/well) was added and color development was stopped with 0.8N H2SO4 (100 μl/well). The absorbance at 450 nm was then measured in a 96 well plate reader.
In a uPAR binding assay, the following analogs were tested in a competition with phage displaying either peptide 25 or peptide 9. The analogs comprise both natural and unnatural amino acids.
The analogs were tested in an assay utilizing soluble uPAR, similar to the method described in Example 2. The analogs were tested for their ability to compete with phage displaying either peptide 9 or peptide 25. Analogs 3–61 were tested in competition with peptide 25. Analogs 62–96 were tested in competition with peptide 9. Approximately 10^8 plaque forming units of the phage were used in the assay.
The analogs were tested at a concentration at 40 μM in the uPAR competition assay with phage displaying peptide 25. The results below show which analogs were active.
Analogs 31–61 were tested for their ability to compete with phage displaying peptide 25. The active analogs were tested further at two concentrations, 5 μM and 2.5 μM. These concentrations were calculated based on the synthesis reactions. However, the sequences * were further tested and determined to contain high amounts of amino acids and the quantity tested could have been higher than 5 μM or 2.5 μM.

In experiment [1] the test system is GPI-uPAR dependent adhesion of 293 cells to vitronectin. Description: Adhesion of GPI-uPAR expressing 293 cells to vitronectin. It counts as cell-based. From the text:
In order to ascertain whether cytoskeletal connecting elements important to integrin-dependent adhesion were also involved in adhesion mediated by uPAR, embryonic kidney cells (293 cells) were engineered to coexpress uPAR along with a chimeric protein comprised of the β1 cytoplasmic tail fused with the transmembrane domain of […] (CD4). […] Co-expression of uPAR with β1 cytoplasmic domains completely abrogated uPAR-dependent vitronectin adhesion. Clones expressing full length or truncated β1 cytoplasmic tails prepared as in Lukashev et al, J. Biol. Chem. 26: 18311 (1994) were transfected with cDNA for GPI-uPAR and selected as in Wei et al, J. Biol. Chem. 169: 32380 (1994). Chimeric β1 expression was induced by cadmium for 6 hours prior to assaying adhesion to vitronectin at 37° C. Following induction of full length β1 chimerics, essentially no cells were adherent to vitronectin-coated surfaces whereas co-transfectants expressing the truncated β1 adhered avidly.
Cell adhesion assays were conducted to determin whether the observed uPAR/β1/caveolin complexes were functionally relevant.
To test this hypothesis further, a phage display peptide library was screened for uPAR-binding phages. A number of phage peptides were isolated as described in Goodson et al, Proc. Natl. Acad. Sci. U.S.A. 91: 7129 (1994). […]

For another experiment, the target named is T1, suPAR (Homo sapiens, UniProt Q03405).
T1 construct: sUPAR, soluble truncated form of the urokinase receptor; made in house; host or cells: baculovirus-infected Sf9 insect cells
The experiment in a line: SuPAR:1-anilino-8-napthalenesulfonate (ANS) fluorescence. It counts as binding. The note with it: 2 μM sUPAR, 10 μM ANS, 0 to 20 μM competitor. On the procedure:
Determination of the effect of various peptide ligands on sUPAR/ANS fluorescence was performed following a procedure similar to that of Ploug et al, Biochem. 33: 8991–8997 (1994). Fluorescence emission spectra of sUPAR/ANS solutions with or without competitors were obtained using an Hitachi F-4500 fluorescence spectrophotometer with an excitation wavelength of 386 nm, 5-nm band-pass excitation and emission slits, and a 10 mm path length quartz cuvette. The emission spectra from 400 to 600 nm were recorded. For competition measurements, dilutions of a stock sUPAR/ANS solution were made to give individual 0.5 ml aliquots with a final concentration of 2 μM sUPAR, 10 μM ANS, and 0 to 20 μM competitor in PBS containing 10% DMSO. Fluorescence measurements were made after a one hour incubation at 25° C.

soluble uPAR, sequence (Q03405 23-305 limits assumed): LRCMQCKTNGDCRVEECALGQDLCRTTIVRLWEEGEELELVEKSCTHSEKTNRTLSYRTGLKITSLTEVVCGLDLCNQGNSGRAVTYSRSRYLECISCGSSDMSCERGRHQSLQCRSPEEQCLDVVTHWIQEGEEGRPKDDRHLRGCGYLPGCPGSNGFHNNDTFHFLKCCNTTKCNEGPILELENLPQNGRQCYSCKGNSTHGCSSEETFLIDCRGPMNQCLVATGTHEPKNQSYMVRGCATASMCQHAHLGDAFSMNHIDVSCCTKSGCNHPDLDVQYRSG
T1 sequence (Q03405 23-305 limits assumed): as above

As a reminder, the IC50 is the concentration that gives 50% inhibition. Turning to H-AESTYHHLSLGYMYTLN-NH2 [peptide 25], the “% Inhibition 2.5 uM” value at soluble uPAR (2500.0) worked out at 45%. Besides, the “% Inhibition 5 uM” value at soluble uPAR (5000.0) turned out to be 59%. The same substance gave an IC50 in experiment [1] of around 60 µM. In addition, at suPAR, the “effect on ANS fluorescence enhancement in the presence of uPAR” value was “no effect”.

The values are drawn from patent US7094752B2 (Chiron Corporation, priority 1997, dated 2006).
